In publication PMC8850458, “The AUTOTAC chemical biology platform for targeted protein degradation via the autophagy-lysosome system” (Nature Communications, 2022):
pIC50: −log10 of the molar value. Several values for one entry are separate records, joined by “and”; a condition that tells them apart may be missing. Equal values may be shown once. Read-outs that look alike come from different tables or passages of the source. One block for each compound: values may come before it.

Columns and labels:
wild-type desmin = molecular target: T1, wild-type desmin (Homo sapiens, UniProt P17661); test: WB degradation of wild-type desmin in HeLa cells; format: cell-based; details: exogenously expressed
T1 construct: expressed in transfected cells; host or cells: HeLa, transient
T1 sequence (P17661 whole entry): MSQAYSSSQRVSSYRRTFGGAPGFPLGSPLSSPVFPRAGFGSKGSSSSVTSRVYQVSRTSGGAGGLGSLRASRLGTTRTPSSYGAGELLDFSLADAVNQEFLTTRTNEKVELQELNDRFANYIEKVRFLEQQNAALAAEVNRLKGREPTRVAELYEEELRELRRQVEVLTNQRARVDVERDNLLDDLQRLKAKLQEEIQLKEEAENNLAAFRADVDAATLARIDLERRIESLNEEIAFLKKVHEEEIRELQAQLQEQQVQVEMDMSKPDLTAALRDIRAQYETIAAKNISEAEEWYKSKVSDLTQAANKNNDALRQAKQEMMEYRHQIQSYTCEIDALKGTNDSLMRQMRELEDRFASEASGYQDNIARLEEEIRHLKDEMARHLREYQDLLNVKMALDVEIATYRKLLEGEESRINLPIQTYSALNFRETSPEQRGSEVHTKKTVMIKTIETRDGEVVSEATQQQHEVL
Description: (§1) Adherent cells were washed with phosphate-buffered saline (PBS) and cell pellets were lysed in SDS-based sample buffer (277.8 mM Tris-HCI, pH 6.8, 4.4% LDS, 44.4% (v/v) glycerol) containing beta-mercaptoethanol. Alternatively, cell pellets or protein supernatants were lysed in 5X Laemmli sample buffer. Whole-cell lysates were separated using SDS-PAGE, and transferred onto polyvinyllidene difluoride membranes at 100 V for 2 h at 4 °C. The membrane was incubated with a blocking solution consisting 4% skim milk in PBS solution for 30 min at room temperature and incubated with primary antibodies overnight, followed by incubation with host-specific HRP-conjugated secondary antibodies (1:10000 dilution). For signal detection, the membrane was developed with a mixture of ECL solution (Thermo Fisher Scientific) using X-ray films. Densitometry of developed bands was measured and analyzed with ImageJ (NIH, Bethesda).
(§2) Supplementary Fig. 5. AUTOTACs selectively target pathological aggregation-prone proteins for autophagic degradation. (a) WB in HEK293T cells treated with PBA-1105 (1 μM) and MG132 (1 μM, 24 h) at the indicated time points. (b) ICC of HeLa cells treated with the indicated compounds (1 μM, 24 h). Scale bar, 10 μm. (c) WB in HEK293T cells treated with PBA-1105 (500 nM, 24 h) and MG132 (1 μM, 24 h) under siRNA-mediated knockdown of p62 or ATG7 (20 nM, 48 h). (d) ICC in HeLa cells transiently expressing WIPI2-GFP and treated with Anle138b-F105 (1 μM, 24 h). Scale bar, 10 μm. (e) ICC in HeLa cells treated with […]
(§3) nM, 24 h). (g, h) WB in HeLa cells transiently expressing wild type or mutant (L385P) desmin-flag with LacZ-myc and treated with PBA-1105, PBA-1105b or Anle138b-F105 at the […]

tauP301L = tauP301L (Homo sapiens, UniProt P10636, P618L); test: WB degradation of tauP301L in SH-SY5Y-tauP301L cells; format: cell-based
Sequence of tauP301L (P10636 1-441 isoform P10636-8 P301L): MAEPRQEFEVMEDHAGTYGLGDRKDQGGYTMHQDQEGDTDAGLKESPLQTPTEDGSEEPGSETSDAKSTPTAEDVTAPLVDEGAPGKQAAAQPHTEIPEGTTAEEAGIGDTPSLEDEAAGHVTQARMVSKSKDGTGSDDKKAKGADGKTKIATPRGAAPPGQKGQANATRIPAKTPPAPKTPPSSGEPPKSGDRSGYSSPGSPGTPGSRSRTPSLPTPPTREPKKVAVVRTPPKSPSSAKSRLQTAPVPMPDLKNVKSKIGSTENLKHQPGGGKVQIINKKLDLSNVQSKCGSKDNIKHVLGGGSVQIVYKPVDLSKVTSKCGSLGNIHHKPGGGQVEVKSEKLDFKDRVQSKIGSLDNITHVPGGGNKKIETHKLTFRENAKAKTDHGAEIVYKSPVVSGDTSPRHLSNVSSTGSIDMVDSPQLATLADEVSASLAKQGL
Outline: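 Lysates in SDS/LDS or Laemmli sample buffer were separated by SDS-PAGE and blotted to PVDF. Target protein was detected with primary antibodies, HRP secondary and ECL on X-ray film, and degradation quantified by band densitometry.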

mutant desminL385P = molecular target: T2, mutant desminL385P (Homo sapiens, UniProt P17661, L385P); test: WB degradation of mutant desmin in HeLa cells; format: cell-based; details: exogenously expressed
T2 construct: expressed in transfected cells; host or cells: HeLa, transient
T2 sequence (P17661 whole entry L385P): as the sequence (P17661 whole entry) above, with L385P counted along it
Description: as §1, §2, §3

p62 = molecular target: T3, p62 (Homo sapiens, UniProt Q13501); test: In vitro p62 oligomerization assay; format: biochemical; details: HEK293T lysate
T3 construct: expressed in transfected cells; host or cells: HEK293T, transient; whole lysate used
T3 sequence (Q13501 whole entry): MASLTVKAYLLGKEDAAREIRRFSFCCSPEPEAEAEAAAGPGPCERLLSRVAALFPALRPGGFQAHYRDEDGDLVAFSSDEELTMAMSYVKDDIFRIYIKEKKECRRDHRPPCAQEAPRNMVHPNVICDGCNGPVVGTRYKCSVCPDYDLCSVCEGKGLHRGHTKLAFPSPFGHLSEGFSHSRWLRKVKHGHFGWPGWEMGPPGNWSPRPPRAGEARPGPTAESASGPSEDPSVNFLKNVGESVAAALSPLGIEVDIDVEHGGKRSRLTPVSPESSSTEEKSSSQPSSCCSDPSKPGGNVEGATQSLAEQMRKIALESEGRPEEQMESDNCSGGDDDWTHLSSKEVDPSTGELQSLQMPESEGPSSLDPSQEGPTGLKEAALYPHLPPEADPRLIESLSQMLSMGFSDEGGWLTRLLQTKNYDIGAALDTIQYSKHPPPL
Description: HEK293T cells were transiently transfected with a plasmid encoding p62-myc/his fusion proteins. Cells were resuspended in lysis buffer [50 mM HEPES (pH 7.4), 0.15 M KCl, 0.1% Nonidet P-40), 10% glycerol, containing a mixture of protease inhibitors and phosphatase inhibitor (Abcam)]. To lyse the cells, 10 cycles of freezing and thawing was done, followed by centrifugation at 13,000 × g for 20 min at 4 °C. Using a BCA assay, the protein concentration of the supernatant was measured. A total of 1 μg of protein was incubated with 1 mM of p62-ZZ ligands in the presence of 100 μM bestatin (Enzo) at room temperature for 2 h. After incubation, each sample was mixed with non-reducing 4X LDS sample buffer, heated at 95 °C for 10 min, and resolved using 4–20% gradient SDS-PAGE (Bio-Rad). To monitor the conversion of p62 monomers into oligomers or aggregates, IB assay was performed using anti-myc antibody.

[1] = tested on: mutant huntingtin (Htt-NES-Q97, Htt-NLS-Q97); test: WB autophagy flux/degradation of mutant huntingtin in HeLa cells; format: cell-based; details: HttQ97-NLS-GFP, 24 h post-treatment; read-out: DC50 against the nuclear subpopulation of Htt
Description: as §1
Supplementary Fig. 7. AUTOTACs selectively degrade pathological mutant huntingtin.
(a) WB in HeLa-Htt-NLS-Q97-GFP cells treated with PBA-1106 or PBA-1105 (2.5 μM, 24 h) with or without HCQ (25 μM, 24 h). (b) Identical to a but with YOK-1106 instead of PBA-1105 in HeLa-Htt-NES-Q97-GFP cells. […] (k) Quantification of j (n=3 biologically independent experiments each counting 50 cells). […]

E1 = tested on: E1; parameters: method as in printed; details: authors' reply, ref not given; cited from earlier work
[2] = molecular target: T4, methionine aminopeptidase 2 (MetAP2) (Homo sapiens, UniProt P50579); test: Western blot degradation of MetAP2; format: cell-based; details: for DC50: read-out: DC50 for MetAP2
T4 construct: Targeted autophagic degradation of endogenous oncoproteins by AUTOTAC; endogenous in cells; host or cells: HEK293 / HEK293T, U87-MG
T4 sequence (P50579 whole entry): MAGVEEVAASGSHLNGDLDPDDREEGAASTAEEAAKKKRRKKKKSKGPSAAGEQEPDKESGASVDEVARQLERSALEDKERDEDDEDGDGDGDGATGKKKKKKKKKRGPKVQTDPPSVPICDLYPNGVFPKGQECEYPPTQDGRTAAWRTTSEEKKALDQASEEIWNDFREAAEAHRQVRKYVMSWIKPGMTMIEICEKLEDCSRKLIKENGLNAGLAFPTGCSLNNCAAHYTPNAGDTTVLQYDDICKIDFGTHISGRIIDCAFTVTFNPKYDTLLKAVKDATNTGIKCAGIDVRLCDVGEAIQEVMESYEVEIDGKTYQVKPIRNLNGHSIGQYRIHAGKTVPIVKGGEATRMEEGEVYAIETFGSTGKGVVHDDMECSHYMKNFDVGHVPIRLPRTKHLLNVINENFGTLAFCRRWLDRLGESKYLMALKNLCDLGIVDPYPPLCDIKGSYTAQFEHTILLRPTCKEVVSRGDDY
Description: as §1

[3] = tested on: U87-MG glioblastoma cells; test: Wound healing assay in U87-MG cells; format: cell-based; details: as early as 4 h and up to 24 h post-scratch
Description: To analyze cell migration in two dimensions, U-87 MG or ACHN cells were plated to a monolayer. Cells were scratched with a sterile 10 μl pipette tip and the debris was removed using medium. Cells were treated with compounds and incubated for different time to monitor cell behavior. Photographs were obtained using a microscope at different time point.

HeLa cells = test: Flow cytometry (propidium iodide, sub-G1); format: cell-based; details: 1 µM, 48 h
Description: Cell death and cell cycle arrest were quantified by staining cells with propidium iodide for flow cytometry with a BD FACSCalibur (BD Biosciences) according to the manufacturer’s instructions. […] Cells were collected by centrifugation and fixed in 70% ethanol at 4 °C for 24 h. Cells were washed with PBS and stained with propidium iodide (10 µg/mL) with RNAse treatment at 37 °C for 30 min. DNA content at each cell cycle checkpoint was measured and analyzed using BD CellQuest Pro (BD Biosciences) and ModFit LT Systems (Verity Software House).

degradation of wild-type desmin (wild-type desmin): not wild-type desmin
persistence of mutant tau degradation post-washout (tauP301L; 100 nM 24 h, then washout): at least 8 h
DC50 (tauP301L; SH-SY5Y-tauP301L cells): ~3 nM
degradation of mutant desminL385P (mutant desminL385P): induced the degradation
p62 self-oligomerization (p62): facilitated p62 self-polymerization
DC50 [1]: ~3 nM
Structure (SMILES): Fc1ccc(COc2cccc(CNCCOCCOCCNc3cccc(-c4cc(-c5ccc6c(c5)OCO6)n[nH]4)c3)c2)cc1 [Anle138b-F105]

Structure (SMILES): CCOC(=O)c1ccc(N2NC(=O)/C(=C/c3ccc([N+](=O)[O-])o3)C2=O)cc1 [pyr41]
pIC50 (E1): > 5.00

Structure (SMILES): COC1C(OC(=O)C=CC=CC=CC=CC(=O)NCCOCCOCCNCc2cccc(OCc3ccccc3)c2)CCC2(CO2)C1C1(C)OC1CC=C(C)C (centres unmarked) [Fumagillin-105]
MetAP2 normalized to control, AVG % ([2]; 293T, 24 h, 1nM): 99.8808%
MetAP2 normalized to control, AVG % ([2]; 293T, 24 h, 10nM): 77.0205%
MetAP2 normalized to control, AVG % ([2]; 293T, 24 h, 100nM): 98.7214%
MetAP2 normalized to control, AVG % ([2]; 293T, 24 h, 1uM): 25.6004%
MetAP2 normalized to control, AVG % ([2]; 293T, 24 h, 2.5uM): 44.4377%
MetAP2 normalized to control, AVG % ([2]; 293T, 24 h, 5uM): 22.9281%
MetAP2 normalized to control, AVG % ([2]; 293T, 24 h, 10uM): 19.1769%
Dmax, 24 hr for MetAP2 ([2]; HEK293 cells): 1 to 10 µM
remaining activity at 0.001 µM ([2]; HEK-293T, 24 h, 293T, 24 h, 1nM, single experiments, read-out: MetAP2 normalized to GAPDH and to control, percentage): 98.3%
remaining activity at 0.1 µM ([2]; HEK-293T, 24 h, 293T, 24 h, 100nM, single experiments, read-out: MetAP2 normalized to GAPDH and to control, percentage): 98%
remaining activity at 1 µM ([2]; HEK-293T, 24 h, 293T, 24 h, 1uM, single experiments, read-out: MetAP2 normalized to GAPDH and to control, percentage): 19.3%
remaining activity at 2.5 µM ([2]; HEK-293T, 24 h, 293T, 24 h, 2.5uM, single experiments, read-out: MetAP2 normalized to GAPDH and to control, percentage): 52.8%
DC50 ([2]; U87-MG glioblastoma cells, 24 h): ~500 nM
DC50 ([2]; HEK293 cells (legend: HEK293T), 24 h): ~700 nM and 701 nM
inhibition of migration [3]: more efficiently inhibited the migration
programmed cell death (sub-G1 subpopulation) (HeLa cells): induced programmed cell death
